These results are taken from US20260048062A1, “FUSED AMINO PYRIMIDINE COMPOUNDS FOR TREATMENT OF PSYCHOSIS AND PSYCHOTIC DISORDERS” (Ovid Therapeutics Inc., priority 2024, published 2026).

The target in one assay is T1, KCC2-S940A (Homo sapiens, UniProt Q9H2X9, S963A).
T1 construct: expressed in transfected cells; host or cells: HEK-293
T1 sequence (Q9H2X9 1-1116 isoform Q9H2X9-2 S940A): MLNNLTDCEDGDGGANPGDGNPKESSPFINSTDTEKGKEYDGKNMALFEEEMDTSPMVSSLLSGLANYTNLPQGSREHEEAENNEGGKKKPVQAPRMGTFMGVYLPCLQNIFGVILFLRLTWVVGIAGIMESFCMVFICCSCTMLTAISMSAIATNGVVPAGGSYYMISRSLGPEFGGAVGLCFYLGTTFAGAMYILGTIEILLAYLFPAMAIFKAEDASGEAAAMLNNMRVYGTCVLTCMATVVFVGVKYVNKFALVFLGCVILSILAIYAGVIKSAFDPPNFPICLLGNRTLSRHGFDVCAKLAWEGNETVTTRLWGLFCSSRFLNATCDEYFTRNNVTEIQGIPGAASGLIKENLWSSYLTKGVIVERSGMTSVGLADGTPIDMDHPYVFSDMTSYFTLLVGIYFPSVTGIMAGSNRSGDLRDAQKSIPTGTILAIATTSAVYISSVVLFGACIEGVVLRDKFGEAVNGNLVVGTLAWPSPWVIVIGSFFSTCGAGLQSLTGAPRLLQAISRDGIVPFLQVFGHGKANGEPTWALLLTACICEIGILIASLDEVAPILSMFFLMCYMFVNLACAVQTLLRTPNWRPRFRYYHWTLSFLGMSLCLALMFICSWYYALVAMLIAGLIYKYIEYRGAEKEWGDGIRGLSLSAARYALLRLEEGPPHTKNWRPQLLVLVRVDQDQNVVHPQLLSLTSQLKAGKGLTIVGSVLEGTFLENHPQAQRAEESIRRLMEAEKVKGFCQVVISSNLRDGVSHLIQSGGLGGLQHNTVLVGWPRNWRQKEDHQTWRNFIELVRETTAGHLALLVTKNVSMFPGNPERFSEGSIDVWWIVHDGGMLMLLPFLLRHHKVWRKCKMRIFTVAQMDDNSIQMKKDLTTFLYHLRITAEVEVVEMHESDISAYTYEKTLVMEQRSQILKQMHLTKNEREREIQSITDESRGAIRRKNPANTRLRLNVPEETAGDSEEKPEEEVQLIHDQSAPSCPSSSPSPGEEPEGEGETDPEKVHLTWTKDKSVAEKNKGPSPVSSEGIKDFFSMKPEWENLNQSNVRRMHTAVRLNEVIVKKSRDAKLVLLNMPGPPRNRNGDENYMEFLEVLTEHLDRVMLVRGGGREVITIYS
The assay can be described thus: Tl+ flux assay, HEK-293 cells expressing KCC2-S940A. In kind it is cell-based. As to the method: (§1) FLIPR TI Flux assay. HEK-293 cells were washed with HBSS, and then incubated with loading buffer containing TI sensitive fluorescent dye (https://www.moleculardevices.com), 20 μM bumetanide 20 μM ouabain and 2.5 mM probenecid for 1 h at room temperature (RT) under control conditions or with drugs in the dark using a FlexStation 3 microplate reader (Molecular Devices) and imaged […] for 30 min. Stimulus buffer was added containing 5 mM K^+/0.5 mM Tl^+ and cells were imaged every 1.5 over a 190 second time course The initial rate Tl^+ uptake (Relative Fluorescence Units (RFU) per second) was determined following addition of the stimulus buffer as outlined previously (Conway et al., 2017, supra) (Lee et al., 2022, supra).
(§2) Compared to KCC2, effects on KCC3, KCC4, and NKCC1 were only seen at concentrations more than 35-fold that of KCC2 (>100 μM) (FIG. 1G).

A further assay concerns hippocampus. The assay can be described thus: Neuronal cell death in the hippocampus, Compound A with diazepam. The note with it: mice, Compound A and diazepam vs diazepam alone. In kind it is in vivo.
The next assay has as its target T2, KCC4 (Homo sapiens, UniProt Q9Y666).
T2 construct: expressed in transfected cells; host or cells: HEK-293
T2 sequence (Q9Y666 1-1083): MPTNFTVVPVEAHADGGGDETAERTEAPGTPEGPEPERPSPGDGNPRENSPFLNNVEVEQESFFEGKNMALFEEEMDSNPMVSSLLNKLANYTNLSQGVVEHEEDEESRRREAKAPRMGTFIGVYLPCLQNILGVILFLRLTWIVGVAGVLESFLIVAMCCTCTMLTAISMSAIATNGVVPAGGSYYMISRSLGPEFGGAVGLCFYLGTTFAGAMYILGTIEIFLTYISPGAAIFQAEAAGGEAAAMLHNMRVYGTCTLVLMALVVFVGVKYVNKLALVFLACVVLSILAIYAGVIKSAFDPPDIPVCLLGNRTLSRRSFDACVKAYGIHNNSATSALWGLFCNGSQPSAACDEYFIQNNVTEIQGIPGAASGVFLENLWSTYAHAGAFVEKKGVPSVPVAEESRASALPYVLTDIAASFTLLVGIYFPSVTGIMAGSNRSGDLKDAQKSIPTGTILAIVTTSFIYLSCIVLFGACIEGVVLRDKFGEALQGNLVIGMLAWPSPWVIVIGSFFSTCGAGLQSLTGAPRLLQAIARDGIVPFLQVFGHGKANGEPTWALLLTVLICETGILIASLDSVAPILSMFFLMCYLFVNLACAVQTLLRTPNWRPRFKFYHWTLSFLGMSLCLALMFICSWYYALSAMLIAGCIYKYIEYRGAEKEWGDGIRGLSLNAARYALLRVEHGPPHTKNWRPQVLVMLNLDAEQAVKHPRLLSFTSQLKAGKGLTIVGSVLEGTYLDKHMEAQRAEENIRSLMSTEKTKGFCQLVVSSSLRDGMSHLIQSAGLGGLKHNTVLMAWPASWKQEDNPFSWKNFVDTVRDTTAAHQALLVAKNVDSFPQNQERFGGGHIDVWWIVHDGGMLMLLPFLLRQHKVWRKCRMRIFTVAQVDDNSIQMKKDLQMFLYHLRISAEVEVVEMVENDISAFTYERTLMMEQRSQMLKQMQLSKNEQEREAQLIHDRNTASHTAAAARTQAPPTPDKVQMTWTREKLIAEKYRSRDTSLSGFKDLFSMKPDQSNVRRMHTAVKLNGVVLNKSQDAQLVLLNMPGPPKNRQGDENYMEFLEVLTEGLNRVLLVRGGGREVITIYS
The assay can be described thus: Tl+ flux assay, HEK-293 cells expressing KCC4. It is filed as cell-based. The note with it: read-out: concentration at which effects on KCC4 were seen. The protocol: as §1, §2

Molecules are shown by their SMILES.

`C[C@@H]1CN(c2nc3c(c(Nc4ccc(C5CCCCC5)cc4)n2)COC3)CCO1` [Compound A, (R)—N-(4-cyclohexylphenyl)-2-(2-methylmorpholino)-5,7-dihydrofuro[3,4-d]pyrimidin-4-amine]: the “activity of KCC2-S940A construct” value at KCC2-S940A is on record as “increased the activity”. For the same compound, the “neuronal cell death in the hippocampus” value with hippocampus is on record as “significantly reduced”. Further, the EC50 on KCC4 is over 100 µM.
